How the values were obtained:
[1] = tested on: polymorphonuclear leukocyte (PMN) infiltration; conditions: in vivo, mouse model of acute inflammation; cited from earlier work
atherosclerotic plaques = experiment: Plaque disruption by MRI before and after triggering in a rabbit model of atherosclerosis (cholesterol diet plus balloon injury); format: in vivo, New Zealand White (NZW) rabbits; conditions: for plaque stabilization: applied to both sides of the mandible on the gingiva every-other-day, high cholesterol diet and balloon injury to descending thoracic and abdominal aortic segments
Protocol: New Zealand White (NZW) rabbits (n=10) received cholesterol-enriched diet (1%) for 8 weeks to develop atherosclerosis. In addition, balloon injury was performed at 2 weeks to advance the atherosclerosis at the descending thoracic and abdominal aortic segments. The […] of cholesterol feeding was followed by a 4 week period of normal chow diet at the end of the experiment. Half of the rabbits were randomized in the experimental (9,12 benzo LXA4-treated) group and half in the control group.
Topical LXA4 (1 mg/ml) was applied on both side of the mandible on the gingiva every-other-day for the duration of the experiment. In vivo MRI images were taken at 12 weeks at before and after triggering. After euthanasia, the aortas were dissected for ex-vivo MRI and histology.

In the case of 9,12 benzo LXA4, the “levels of pro-inflammatory cytokines” value [1] is listed as “significantly reducing”, the “polymorphonuclear leukocyte (PMN) infiltration” value [1] is listed as “significantly reducing” and the plaque stabilization (atherosclerotic plaques) is listed as “sufficient to stabilize atherosclerotic plaques”. For the same compound, the “segments that showed disruption (post-trigger image showed a luminal thrombus) of segments analyzed” value (atherosclerotic plaques; treatment group, topical 1 mg/ml on gingiva, both sides of the mandible, every-other-day, in vivo MRI at 12 weeks, only one site in one rabbit) was 2/104.

In the case of `CC[C@@H](O)/C=C/C=C\C[C@@H](O)/C=C/C=C/C=C\[C@@H](O)CCCC(=O)O` [Resolvin E1], the plaque stabilization (atherosclerotic plaques) is reported as “sufficient to stabilize atherosclerotic plaques”.

Source: patent publication US20230355562A1, “METHODS FOR STABILIZING ATHEROSCLEROTIC PLAQUES USING LIPOXINS, RESOLVINS, AND ANALOGS THEREOF” (The Forsyth Institute, priority 2015, published 2023)
